Assay results reported in ChEMBL document CHEMBL1157511, “Dictazolines A and B, bisspiroimidazolidinones from the marine sponge Smenospongia cerebriformis” (J Nat Prod, 2008).
The source made the active and inactive calls. The rule behind the calls is not given here.

Test: Inhibition of beta-secretase assessed as proteolytic cleavage of amyloid precursor protein

| Activity | Structure (SMILES) |
| --- | --- |
| inactive | CN1C(=N)N(C)[C@@]2(Cc3c([nH]c4ccccc34)[C@]3(C(=O)N(C)C(=N)N3C)[C@@H]2c2c[nH]c3cc(Br)ccc23)C1=O |
| inactive | CN1C(=N)N(C)[C@@]2(Cc3c([nH]c4ccccc34)[C@]3(C(=O)N(C)C(=N)N3C)[C@@H]2c2c[nH]c3ccccc23)C1=O |
